Reference: patent EP1500403A1, “PREVENTIVE/REMEDY FOR DIABETES” (Ajinomoto Co., Inc., priority 2002, dated 2003)

What was measured:
[1] = test system: Renal brush border membrane; assay: Assessment of inhibitory action of glucose uptake, 14C-D-glucose (Test Example 1A); format: biochemical, rat; settings: incubation 37 °C 30 minutes, 14C-D-glucose one minute
Protocol: Test compounds were dissolved in 100 mM mannitol-10 mM HEPES/Tris, pH 7.4 to prepare solutions at various concentrations.
Renal brush border membrane was prepared from a rat kidney, to which a solution of a test compound was added for incubation at 37 °C for 30 minutes. Then, ^14C-D-glucose was added for incubation for one minute. A solution containing 1 mM phlorizin was used to terminate the glucose uptake reaction. The radioactivity ^14C of ^14C-D-glucose incorporated in the renal brush border membrane was counted with a liquid scintillation counter. The glucose uptake independent on sodium was reduced from the glucose uptake in a control group or a test group, to calculate the inhibition intensity.

Male Wistar rats = assay: Evaluation of urine sugar excretion action in rats (Test Example 1); format: in vivo; settings: 100 mg/kg p.o. in olive oil, urine collected 24 hours, per individual per day
Protocol: Male Wistar rats aged 5 weeks (purchased from Charles River Japan, Inc.) were acclimatized in metabolic cages for one week, for use at this experiment. The test compounds suspended in olive oil were prepared into a 20 mg/ml solution to a dose of 5 ml per 1 kg rat body weight.
After the rats were starved for 4 hours, the test compounds were orally given at 100 mg/kg to the rats at 11 am. Immediately after dosing until 24 hours later, urine was collected. The volume of urine was measured. Then, urine sugar concentration was assayed by glucose oxidase method, to calculate the glucose excretion into urine per individual per day.

glucose-loaded mice = assay: Blood glucose time course after oral glucose loading in KK mice (Example II); format: in vivo; settings: glucose 1 g/kg p.o.
Protocol: KK mice (age of 25 weeks; male) fed with a commercially available high-calories feed for breeding (CMF; Oriental Yeast) were divided into groups with matched body weights. After starvation for 17 hours, glucose was orally given at 1 g/kg. Immediately thereafter, the inhibitor A of renal glucose reabsorption (30 mg/kg or 45 mg/kg) or metformin (200 mg/kg or 300 mg/kg) was orally given. Additionally, a group given with the inhibitor A of renal glucose reabsorption (30 mg/kg) and metformin (200 mg/kg) was prepared. A vehicle was orally given to a control group after glucose dosing.
Blood glucose level was assayed in a time course.

[2] = test system: Type 2 diabetic model GK rats; assay: Blood glucose after repeated once daily dosing in GK rats (Example III); format: in vivo; settings: once daily p.o., day 25, glibenclamide 3 mg/kg, inhibitor A 30 mg/kg, or both, vs vehicle-dosed group (Fig. 4)
Protocol: These agents were orally given once daily at the same time period as in the group administered with a single one agent. Only a vehicle was given orally to a control group. On day 25 after the start of administration, blood glucose was assayed sequentially, to compare the groups in terms of the resulting blood glucose levels.

[3] = test system: Type 2 diabetes model Zucker diabetic fatty rats; assay: Insulin content in pancreas after repeated dosing in Zucker diabetic fatty rats, ELISA (Example V); format: in vivo; settings: twice daily p.o., day 39, starved 18 hours, inhibitor A 30 mg/kg, metformin 200 mg/kg, or both, ELISA of pancreas homogenates (Fig. 5)
Protocol: The agents were orally given twice daily at the same time period as in the case of the groups administered with a single one of these agents. Only a vehicle was orally given twice daily to the animals in a control group. On day 39 from the start of administration, the animals were starved for 18 hours. Then, pancreas was resected from the animals, for the assay of insulin in pancreas homogenates by ELISA, to compare the groups in terms of insulin content in pancreas.

glucose-loaded rats = assay: Blood glucose time course after oral glucose loading in rats (Example I); format: in vivo; settings: Wistar rats, glucose 1 g/kg p.o.
Protocol: Wistar rats (age of 7 weeks; male) were divided into groups with matched body weights. After 17-hour starvation, glucose was orally given at 1 g/kg to the animals. Immediately after the administration, the inhibitor A of renal glucose reabsorption or the inhibitor B of renal glucose reabsorption (A at 30 mg/kg or 60 mg/kg; B at 30 mg/kg or 80 mg/kg) or glibenclamide (1 mg/kg or 2 mg/kg) or nateglinide (50 mg/kg or 80 mg/kg) was orally given. Additionally, a group on the combined use of both of an inhibitor of renal glucose reabsorption and a hypoglycemic agent was also prepared. A vehicle was orally given to a control group after glucose administration.
Blood glucose was measured in a time course.

[4] = inhibitor A 30 mg/kg p.o., vs control group (Fig. 3)
[5] = glibenclamide 1 mg/kg, inhibitor A 30 mg/kg, or both, p.o., vs vehicle group (Fig. 1)

Q: CCc1ccc(Cc2c(O[C@@H]3O[C@H](C(=O)O)[C@@H](O)[C@H](O)[C@H]3O)n[nH]c2C(F)(F)F)cc1 [Compound of Production Example 2-A, 4-((4-ethylphenyl)methyl)-5-(trifluoromethyl)-1H-pyrazol-3-yl-β-D-glucopyranoside uronic acid] was tested. Which “Inhibition intensity (concentration of test compound)” value ([1]; 100 µM test compound) did it give?
A: 30 % (100 µM)

Q: How did the “Urine sugar excretion” value (Male Wistar rats) turn out when CCc1ccc(Cc2c(O[C@@H]3O[C@H](COC(=O)OC)[C@@H](O)[C@H](O)[C@H]3O)nn(C3CCC3)c2C(F)(F)F)cc1 [Compound of Production Example 2, 1'-cyclobutyl-4'-[(4-ethylphenyl)methyl]-5'-trifluoromethyl-1H-pyrazole-3'-o-(6-carbomethoxy)-β-D-glucopyranoside] was run?
A: 656 mg

Q: For CCc1ccc(Cc2c(O[C@@H]3O[C@H](COC(=O)OC)[C@@H](O)[C@H](O)[C@H]3O)nn(C3CCCC3)c2C(F)(F)F)cc1 [Compound of Production Example 4, 1'-cyclopentyl-4'-[(4-ethylphenyl)methyl]-5'-trifluoromethyl-1H-pyrazole-3'-o-(6-carbomethoxy)-β-D-glucopyranoside], which “Urine sugar excretion” value (Male Wistar rats) is on record?
A: 452 mg

Q: Which “blood glucose level 2 hours later and thereafter” value (glucose-loaded mice; [4]) does the source give for CCc1ccc(Cc2c(O[C@@H]3O[C@H](CO)[C@@H](O)[C@H](O)[C@H]3O)nn(C3CCC3)c2C(F)(F)F)cc1 [1'-cyclobutyl-4'-[(4-ethylphenyl)methyl]-5'-trifluoromethyl-1H-pyrazole-3'-o-β-D-glucopyranoside] here?
A: could not suppress the blood glucose level

Q: And the “hyperglycemia 60 minutes after glucose loading” value (glucose-loaded mice; [4])?
A: could suppress hyperglycemia

Q: What about the “increase of blood glucose / hyperglycemia 30 minutes after glucose loading” value (glucose-loaded mice; metformin 200 mg/kg or inhibitor A 30 mg/kg p.o., vs control group (Fig. 3)) of the same compound?
A: could suppress hyperglycemia

Q: And the “pattern of glycemic suppression at elevated dose” value (glucose-loaded mice; metformin 300 mg/kg or inhibitor A 45 mg/kg p.o., vs lower dose (Fig. 3))?
A: did not change

Q: And the blood glucose level [2]?
A: significantly lowered

Q: What about the “insulin content in pancreas” value [3] of the same compound?
A: no difference was observed

Q: What about the “blood glucose level 120 minutes after glucose loading and thereafter” value (glucose-loaded rats; [5]) of the same compound?
A: did not lower the blood glucose level 120 minutes after glucose loading and thereafter as greatly as glibenclamide did

Q: And the “hyperglycemia / blood glucose level immediately after glucose loading (30 minutes)” value (glucose-loaded rats; [5])?
A: suppressed hyperglycemia

Q: And the “pattern of glycemic suppression at increased dose” value (glucose-loaded rats; glibenclamide 2 mg/kg or inhibitor A 60 mg/kg p.o., vs lower dose (Fig. 1))?
A: did not change

Q: For CSc1ccc(Cc2c(O[C@@H]3O[C@H](CO)[C@@H](O)[C@H](O)[C@H]3O)n[nH]c2C(F)(F)F)cc1 [Compound of Production Example 1-A, 4-((4-methylthiophenyl)methyl)-5-(trifluoromethyl)-1H-pyrazole-3-o-β-D-glucopyranoside], which “Inhibition intensity (concentration of test compound)” value ([1]; 10 µM test compound) is on record?
A: 84 % (10 µM)
